Experimental data as given in ChEMBL document CHEMBL1201862, “PubChem BioAssay data set” (2004).
Each block holds one compound with its values, some of them ahead of it. The source made the active and inactive calls.

How the values were obtained:
[1] = target: Alkaline phosphatase, placental type (Homo sapiens, UniProt P05187); assay: PLAP enzyme inhibitors, confirmation, biochemical, luminescence (AID 1512); type: functional
[2] = target: Receptor-type tyrosine-protein kinase FLT3 (Homo sapiens, UniProt P36888); type: functional;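 note: FLT3 was tested as one member of a kinome-wide kinase panel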
[3] = target: MAP kinase-interacting serine/threonine-protein kinase 2 (Homo sapiens, UniProt Q9HBH9); type: functional
[4] = target: Cyclin-dependent kinase 7 (Homo sapiens, UniProt P50613); type: functional;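 note: value comes from a kinome-wide kinase profiling panel in which CDK7 is one member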
[5] = target: Mast/stem cell growth factor receptor Kit (Homo sapiens, UniProt P10721); type: functional;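 note: KIT entry within a kinase panel assay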
[6] = target: Serine/threonine-protein kinase PLK3 (Homo sapiens, UniProt Q9H4B4); type: functional
[7] = target: Serine/threonine-protein kinase 17A (Homo sapiens, UniProt Q9UEE5); type: functional
SRSF protein kinase 1 = SRSF protein kinase 1 (Homo sapiens, UniProt Q96SB4); type: functional;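 note: measured as one member of a kinome-wide kinase profiling panel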
[8] = target: Cyclin-dependent kinase 1 (Homo sapiens, UniProt P06493); type: functional;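 note: Kinome-wide panel profiling, with the target listed as panel member CDC2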
[9] = target: Serine/threonine-protein kinase TBK1 (Homo sapiens, UniProt Q9UHD2); assay: Navigating the Kinome. Panel member name: TBK1; type: functional
[10] = target: Macrophage colony-stimulating factor 1 receptor (Homo sapiens, UniProt P07333); type: functional;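 note: value comes from the Navigating the Kinome screening panel, CSF1R member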
Insulin receptor = Insulin receptor (Homo sapiens, UniProt P06213); type: functional;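 note: insulin receptor kinase tested as one member of a kinome-wide kinase panel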
[11] = target: Mitogen-activated protein kinase kinase kinase kinase 4 (Homo sapiens, UniProt O95819); type: functional
[12] = target: Rho-associated protein kinase 2 (Homo sapiens, UniProt O75116); type: functional
[13] = target: Hepatocyte growth factor receptor (Homo sapiens, UniProt P08581); type: functional;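 note: kinase panel profiling across the kinome, with MET as the panel member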
[14] = target: Interleukin-1 receptor-associated kinase 1 (Homo sapiens, UniProt P51617); type: functional;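 note: IRAK1 tested as one member of a kinome panel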
[15] = target: Casein kinase II subunit alpha (Homo sapiens, UniProt P68400); type: functional
[16] = target: ALK tyrosine kinase receptor (Homo sapiens, UniProt Q9UM73); type: functional;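 note: ALK tested as one member of a kinase panel screen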
[17] = target: Cell division cycle 7-related protein kinase (Homo sapiens, UniProt O00311); type: functional;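 note: value obtained from a kinome-wide kinase panel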
[18] = target: Protein kinase C delta type (Homo sapiens, UniProt Q05655); type: functional
[19] = target: Proto-oncogene tyrosine-protein kinase receptor Ret (Homo sapiens, UniProt P07949); type: functional;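 note: measured within a kinome-wide profiling panel, RET as the panel member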
[20] = target: Serine/threonine-protein kinase PLK4 (Homo sapiens, UniProt O00444); type: functional;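 note: PLK4 measured as one member of a kinome-wide kinase profiling panel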
[21] = target: T1, Mannose-6-phosphate isomerase (Homo sapiens, UniProt P34949); assay: human PMI inhibitors, high substrate, primary screen, biochemical, fluorescence intensity, high mannose 6-phosphate (AID 1220)
T1 sequence (P34949 whole entry): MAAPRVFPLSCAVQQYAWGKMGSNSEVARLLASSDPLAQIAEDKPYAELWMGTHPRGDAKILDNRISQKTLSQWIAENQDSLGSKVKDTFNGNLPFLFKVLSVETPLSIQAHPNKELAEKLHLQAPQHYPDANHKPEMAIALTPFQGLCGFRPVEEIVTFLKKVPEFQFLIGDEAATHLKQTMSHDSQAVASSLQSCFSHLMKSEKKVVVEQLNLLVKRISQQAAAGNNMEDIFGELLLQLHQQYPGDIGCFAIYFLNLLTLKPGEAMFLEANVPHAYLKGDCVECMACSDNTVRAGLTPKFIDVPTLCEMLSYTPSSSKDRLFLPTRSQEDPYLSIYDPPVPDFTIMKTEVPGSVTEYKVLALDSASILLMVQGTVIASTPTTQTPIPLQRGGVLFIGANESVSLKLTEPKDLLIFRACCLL

HEK293 [22] = assay: cells; type: functional, cell-based; conditions: Homo sapiens
HEK293 [23] = assay: cells; type: functional, cell-based; conditions: Homo sapiens; remark: listed apart in the source
[24] = target: T2, Oxysterols receptor LXR-beta (Homo sapiens, UniProt P55055); assay: LXR agonists, Gal4 luciferase reporter, dose response, counter-screen for ssDAF-12 agonist project, cell-based, luminescence, HEK293, S. stercoralis campaign (AID 720737); type: functional; conditions: read-out: IC50 (the source's name)
T2 sequence (P55055 whole entry): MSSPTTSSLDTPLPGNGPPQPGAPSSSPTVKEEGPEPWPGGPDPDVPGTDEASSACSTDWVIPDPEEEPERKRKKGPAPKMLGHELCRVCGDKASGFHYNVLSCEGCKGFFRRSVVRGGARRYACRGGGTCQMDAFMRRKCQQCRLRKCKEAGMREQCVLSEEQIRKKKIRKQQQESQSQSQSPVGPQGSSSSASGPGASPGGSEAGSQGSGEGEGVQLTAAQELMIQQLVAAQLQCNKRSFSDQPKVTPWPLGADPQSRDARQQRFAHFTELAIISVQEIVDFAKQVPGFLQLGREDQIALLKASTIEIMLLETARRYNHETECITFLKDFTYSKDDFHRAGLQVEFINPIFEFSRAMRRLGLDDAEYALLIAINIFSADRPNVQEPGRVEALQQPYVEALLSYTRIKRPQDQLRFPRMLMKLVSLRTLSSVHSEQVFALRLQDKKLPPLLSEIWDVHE

[25] = target: T2, Oxysterols receptor LXR-beta; type: functional, cell-based
[26] = MC4R antagonists, dose response, counter-screen for LGR2 antagonist project, cell-based, plate reader, cherry pick (AID 743444); type: functional;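 note: transfected HEK 293 cells stimulated with alpha-MSH peptide; potency of inhibitors of the alpha-MSH evoked signal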
[27] = target: Eukaryotic translation initiation factor 4E (Mus musculus, UniProt P63073); assay: eIF4E–eIF4G protein interaction inhibitors, dose response, biochemical, TR-FRET (AID 855); type: functional;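 note: potency for disrupting eIF4E binding to eIF4GI seen as loss of FRET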
[28] = target: Glutathione-S-transferase (Schistosoma japonicum, UniProt Q26513); assay: biotin-GST/anti-GST TR-FRET signal inhibitors, dose response, artefact control for Vif-APOBEC3G degradation inhibitor project, biochemical (AID 1117362); type: functional
[29] = Luminescence Cell-Based Dose Confirmation HTS to Identify Activators of 5'UTR Stem-Loop Driven Alpha-Synuclein mRNA Translation in H4 Neuroglioblastoma Cells. [Related pubchem assays: 1829 (Project Summary), 1814 (Primary HTS)]; type: functional
[30] = target: Peroxisome proliferator-activated receptor gamma/Nuclear receptor coactivator 2 (Homo sapiens, UniProt P37231); type: functional;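 note: agonist potency for raising coactivator recruitment to the receptor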

Chain of Cell division cycle 7-related protein kinase (O00311 whole entry): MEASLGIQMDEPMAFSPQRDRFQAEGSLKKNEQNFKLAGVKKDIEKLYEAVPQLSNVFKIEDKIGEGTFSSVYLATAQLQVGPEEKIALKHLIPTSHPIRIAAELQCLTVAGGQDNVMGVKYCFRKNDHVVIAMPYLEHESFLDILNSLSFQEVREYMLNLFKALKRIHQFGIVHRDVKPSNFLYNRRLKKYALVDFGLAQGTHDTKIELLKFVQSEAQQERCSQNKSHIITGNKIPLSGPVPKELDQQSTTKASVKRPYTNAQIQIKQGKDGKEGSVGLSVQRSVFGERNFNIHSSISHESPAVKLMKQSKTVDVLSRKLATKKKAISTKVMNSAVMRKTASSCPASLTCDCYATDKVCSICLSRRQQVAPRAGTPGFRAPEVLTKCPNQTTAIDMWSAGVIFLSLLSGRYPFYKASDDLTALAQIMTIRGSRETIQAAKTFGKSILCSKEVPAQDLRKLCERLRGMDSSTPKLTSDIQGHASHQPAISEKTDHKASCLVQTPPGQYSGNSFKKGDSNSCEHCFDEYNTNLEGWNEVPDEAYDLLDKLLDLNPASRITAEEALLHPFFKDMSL
Chain of ALK tyrosine kinase receptor (Q9UM73 whole entry): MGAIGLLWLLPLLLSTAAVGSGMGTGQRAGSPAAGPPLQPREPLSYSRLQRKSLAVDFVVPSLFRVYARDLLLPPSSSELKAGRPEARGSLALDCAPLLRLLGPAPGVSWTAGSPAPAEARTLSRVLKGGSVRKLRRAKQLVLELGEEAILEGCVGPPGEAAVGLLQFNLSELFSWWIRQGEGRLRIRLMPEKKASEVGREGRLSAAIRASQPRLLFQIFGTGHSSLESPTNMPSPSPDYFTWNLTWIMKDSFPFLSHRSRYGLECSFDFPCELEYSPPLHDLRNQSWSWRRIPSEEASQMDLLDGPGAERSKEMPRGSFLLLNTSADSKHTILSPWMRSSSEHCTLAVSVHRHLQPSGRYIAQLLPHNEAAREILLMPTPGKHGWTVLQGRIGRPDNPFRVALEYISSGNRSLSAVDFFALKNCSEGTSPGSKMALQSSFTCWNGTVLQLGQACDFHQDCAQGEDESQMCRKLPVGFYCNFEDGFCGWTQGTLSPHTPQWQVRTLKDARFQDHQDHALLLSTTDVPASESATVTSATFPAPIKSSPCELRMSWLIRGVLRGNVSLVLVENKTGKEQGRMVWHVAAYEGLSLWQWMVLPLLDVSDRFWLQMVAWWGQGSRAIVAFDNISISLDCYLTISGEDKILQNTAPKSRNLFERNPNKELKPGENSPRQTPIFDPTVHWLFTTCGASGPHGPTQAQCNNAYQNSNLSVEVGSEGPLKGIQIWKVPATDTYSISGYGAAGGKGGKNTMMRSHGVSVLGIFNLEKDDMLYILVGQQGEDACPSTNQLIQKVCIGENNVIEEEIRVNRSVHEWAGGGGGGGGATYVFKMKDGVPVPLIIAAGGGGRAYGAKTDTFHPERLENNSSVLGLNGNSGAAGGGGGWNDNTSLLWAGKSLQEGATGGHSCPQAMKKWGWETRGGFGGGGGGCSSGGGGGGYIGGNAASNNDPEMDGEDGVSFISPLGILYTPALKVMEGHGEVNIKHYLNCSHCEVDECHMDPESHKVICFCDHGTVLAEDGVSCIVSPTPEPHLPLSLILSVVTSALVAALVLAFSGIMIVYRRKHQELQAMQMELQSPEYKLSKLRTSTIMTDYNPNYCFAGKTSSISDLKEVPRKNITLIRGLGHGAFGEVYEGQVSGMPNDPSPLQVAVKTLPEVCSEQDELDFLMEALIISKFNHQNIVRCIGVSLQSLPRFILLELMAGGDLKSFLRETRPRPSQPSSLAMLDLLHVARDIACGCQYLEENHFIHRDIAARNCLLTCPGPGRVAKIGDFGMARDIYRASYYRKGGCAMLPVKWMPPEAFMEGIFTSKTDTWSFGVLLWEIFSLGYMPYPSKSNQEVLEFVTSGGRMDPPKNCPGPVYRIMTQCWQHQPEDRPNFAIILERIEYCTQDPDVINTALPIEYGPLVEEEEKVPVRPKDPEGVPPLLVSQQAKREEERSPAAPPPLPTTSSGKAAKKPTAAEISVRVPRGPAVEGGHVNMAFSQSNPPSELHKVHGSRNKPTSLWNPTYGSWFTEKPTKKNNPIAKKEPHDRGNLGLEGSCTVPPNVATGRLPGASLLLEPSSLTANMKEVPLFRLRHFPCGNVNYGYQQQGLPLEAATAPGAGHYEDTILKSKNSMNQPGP
Chain of Protein kinase C delta type (Q05655 whole entry): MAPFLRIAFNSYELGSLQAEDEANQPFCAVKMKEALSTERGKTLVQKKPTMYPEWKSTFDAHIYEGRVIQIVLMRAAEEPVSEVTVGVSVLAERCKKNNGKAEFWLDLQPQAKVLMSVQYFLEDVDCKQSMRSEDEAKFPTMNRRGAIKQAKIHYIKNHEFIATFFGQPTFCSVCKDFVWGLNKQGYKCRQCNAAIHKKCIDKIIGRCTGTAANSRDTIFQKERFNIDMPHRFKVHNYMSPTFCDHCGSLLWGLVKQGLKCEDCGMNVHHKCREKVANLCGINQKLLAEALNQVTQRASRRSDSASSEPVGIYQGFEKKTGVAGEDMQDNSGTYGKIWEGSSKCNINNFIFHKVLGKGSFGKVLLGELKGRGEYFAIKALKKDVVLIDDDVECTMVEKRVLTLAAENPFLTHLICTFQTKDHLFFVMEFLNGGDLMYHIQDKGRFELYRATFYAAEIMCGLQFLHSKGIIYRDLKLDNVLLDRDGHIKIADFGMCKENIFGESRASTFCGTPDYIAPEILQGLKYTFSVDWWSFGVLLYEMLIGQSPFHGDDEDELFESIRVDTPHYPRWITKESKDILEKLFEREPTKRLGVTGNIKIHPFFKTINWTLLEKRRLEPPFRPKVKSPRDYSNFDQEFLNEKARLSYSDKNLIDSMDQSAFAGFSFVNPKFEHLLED
Chain of Interleukin-1 receptor-associated kinase 1 (P51617 whole entry): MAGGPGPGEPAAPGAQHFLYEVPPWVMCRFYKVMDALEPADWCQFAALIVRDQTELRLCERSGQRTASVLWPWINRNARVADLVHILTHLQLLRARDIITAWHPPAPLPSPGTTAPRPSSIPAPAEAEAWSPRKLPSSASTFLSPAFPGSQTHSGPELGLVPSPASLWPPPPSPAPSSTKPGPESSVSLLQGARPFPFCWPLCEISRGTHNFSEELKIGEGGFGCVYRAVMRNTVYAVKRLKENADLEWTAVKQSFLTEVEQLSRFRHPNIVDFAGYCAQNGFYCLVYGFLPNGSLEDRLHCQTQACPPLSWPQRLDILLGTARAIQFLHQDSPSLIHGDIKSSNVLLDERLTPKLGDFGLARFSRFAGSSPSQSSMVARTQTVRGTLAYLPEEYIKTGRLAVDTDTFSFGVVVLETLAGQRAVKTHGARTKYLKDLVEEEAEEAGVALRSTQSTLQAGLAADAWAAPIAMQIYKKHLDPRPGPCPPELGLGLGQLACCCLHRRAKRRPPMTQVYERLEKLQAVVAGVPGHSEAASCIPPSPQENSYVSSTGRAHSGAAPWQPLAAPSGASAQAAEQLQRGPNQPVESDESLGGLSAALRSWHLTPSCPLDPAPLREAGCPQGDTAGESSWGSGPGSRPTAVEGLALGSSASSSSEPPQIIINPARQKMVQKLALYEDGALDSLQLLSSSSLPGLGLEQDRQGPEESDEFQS
Chain of Receptor-type tyrosine-protein kinase FLT3 (P36888 whole entry): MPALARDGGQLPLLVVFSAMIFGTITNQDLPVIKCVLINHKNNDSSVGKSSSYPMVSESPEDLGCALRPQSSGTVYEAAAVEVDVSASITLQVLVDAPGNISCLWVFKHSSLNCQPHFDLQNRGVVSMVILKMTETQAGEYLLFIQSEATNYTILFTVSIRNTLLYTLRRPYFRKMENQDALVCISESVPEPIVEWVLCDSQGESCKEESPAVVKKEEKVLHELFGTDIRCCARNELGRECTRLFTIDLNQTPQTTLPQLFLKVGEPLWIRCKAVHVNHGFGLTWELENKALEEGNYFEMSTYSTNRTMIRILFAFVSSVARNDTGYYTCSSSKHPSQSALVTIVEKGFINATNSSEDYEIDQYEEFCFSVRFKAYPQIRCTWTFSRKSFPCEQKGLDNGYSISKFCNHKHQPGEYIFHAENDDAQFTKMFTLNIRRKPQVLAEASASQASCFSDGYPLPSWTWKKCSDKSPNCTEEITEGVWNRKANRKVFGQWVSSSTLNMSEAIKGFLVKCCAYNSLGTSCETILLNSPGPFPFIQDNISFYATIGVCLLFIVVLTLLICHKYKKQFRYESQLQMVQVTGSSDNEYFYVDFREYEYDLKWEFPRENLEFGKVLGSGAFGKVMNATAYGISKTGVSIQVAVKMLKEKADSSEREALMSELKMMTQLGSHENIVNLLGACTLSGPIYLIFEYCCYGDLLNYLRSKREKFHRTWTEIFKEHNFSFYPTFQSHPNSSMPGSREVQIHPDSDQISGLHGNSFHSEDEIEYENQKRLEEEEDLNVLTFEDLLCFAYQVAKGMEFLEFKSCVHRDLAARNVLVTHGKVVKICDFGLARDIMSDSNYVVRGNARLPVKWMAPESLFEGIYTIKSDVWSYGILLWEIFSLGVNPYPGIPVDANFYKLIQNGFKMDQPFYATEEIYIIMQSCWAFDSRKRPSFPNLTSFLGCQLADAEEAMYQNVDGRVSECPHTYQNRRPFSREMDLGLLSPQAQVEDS
Chain of MAP kinase-interacting serine/threonine-protein kinase 2 (Q9HBH9 whole entry): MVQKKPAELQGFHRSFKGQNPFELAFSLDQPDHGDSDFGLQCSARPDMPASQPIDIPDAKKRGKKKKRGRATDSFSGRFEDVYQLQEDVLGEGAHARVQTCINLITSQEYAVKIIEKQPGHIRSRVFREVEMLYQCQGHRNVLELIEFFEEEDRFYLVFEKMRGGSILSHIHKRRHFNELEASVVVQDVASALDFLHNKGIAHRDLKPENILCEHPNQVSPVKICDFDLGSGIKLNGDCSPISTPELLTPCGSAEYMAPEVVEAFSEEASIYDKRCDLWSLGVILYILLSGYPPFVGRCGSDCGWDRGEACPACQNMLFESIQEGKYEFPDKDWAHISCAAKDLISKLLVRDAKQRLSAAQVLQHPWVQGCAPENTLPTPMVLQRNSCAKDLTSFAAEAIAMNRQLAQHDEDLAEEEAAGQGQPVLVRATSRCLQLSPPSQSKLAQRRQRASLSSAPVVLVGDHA

SMILES: Cc1ccc(Nc2cc(C)nn2-c2nc(C)cc(O)n2)cc1
IC50 [1]: > 100 µM (inactive)

Ki [2]: 0.158 µM (active)
Ki [3]: 0.794 µM (active)
Ki [4]: > 1.58 µM (inactive)
Ki [5]: > 1.26 µM (inactive)
Ki [6]: 3.16 µM (active)
Ki [7]: 0.631 µM (active)
Ki (SRSF protein kinase 1): 6.31 µM (active)
Ki [8]: > 7.94 µM (inactive)
Ki [9]: > 1.58 µM (inactive)
Ki [10]: > 2.51 µM (inactive)
Ki (Insulin receptor): > 5.01 µM (inactive)
Ki [11]: 0.631 µM (active)
Ki [12]: 0.794 µM (active)
Ki [13]: > 3.16 µM (inactive)
Ki [14]: > 7.94 µM (inactive)
Ki [15]: 0.631 µM (active)
Ki [16]: > 1.26 µM (inactive)
Ki [17]: > 1.26 µM (inactive)
Ki [18]: > 7.94 µM (inactive)
Ki [19]: > 1.26 µM (inactive)
Ki [20]: 1.26 µM (active)
SMILES: O=C1NC(=S)SC1=C1C(=O)Nc2ccc(Br)cc21

SMILES: Cc1ccc(C(=O)c2c(C)oc3c2C(=O)C(=O)c2ccccc2-3)cc1
IC50 [21]: > 50 µM (not active)

SMILES: O=C1C(O)=C/C(=N\c2ccccc2O)c2ccccc21
IC50 (HEK293 [22]): > 20 µM (inactive)
IC50 (HEK293 [23]): > 20 µM (inactive)

SMILES: Cc1cnc(NC(=O)c2sc3ccccc3c2Cl)s1
EC50 [24]: > 67.5 µM (inactive)
EC50 [25]: > 67.5 µM (inactive)
AC50 [26]: 3.25 µM (active)

SMILES: CN(C)c1ncc(C2=C(Cl)C(=O)C(N3CCCC3)=C(Cl)C2=O)s1
IC50 [27]: > 64 µM (inactive)
IC50 [28]: > 100 µM (active)
EC50 [29]: > 120 µM (not active)
EC50 [30]: > 79.4 µM (not active)
